From the supplement of paper PMC10307832

Columns and labels:
Test in all cases: relative viability (nuclei count vs DMSO), 5 days (fraction); higher = more cells survive
BAY61-3606 + Palbociclib = compound: COC1=C(C=C(C=C1)C2=CC3=NC=CN3C(=N2)NC4=C(C=CC=N4)C(=O)N)OC [BAY61-3606] + CC(=O)c1c(C)c2cnc(Nc3ccc(N4CCNCC4)cn3)nc2n(C2CCCC2)c1=O [Palbociclib] (partner 0.5 µM)
In short: (§1)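 Relative viability equals treated-well nuclei counts divided by vehicle-well nuclei counts. Counts came from 4× images of lung cancer cell lines grown in 1536-well plates for 5 days after pin-tool dosing on the day after seeding. Dosing used one drug alone or a fixed anchor-drug dose plus five library-drug doses (not always all listed) in √10 steps, and values are medians of duplicate plates.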

Doxorubicin + Pemetrexed = compound: COc1cccc2c1C(=O)c1c(O)c3c(c(O)c1C2=O)C[C@@](O)(C(=O)CO)C[C@@H]3O[C@H]1C[C@H](N)[C@H](O)[C@H](C)O1 [Doxorubicin] + Nc1nc2[nH]cc(CCc3ccc(C(=O)N[C@@H](CCC(=O)O)C(=O)O)cc3)c2c(=O)[nH]1 [Pemetrexed] (partner 0.2 µM)
In short: as §1

Doxorubicin + Pictilisib = compound: COc1cccc2c1C(=O)c1c(O)c3c(c(O)c1C2=O)C[C@@](O)(C(=O)CO)C[C@@H]3O[C@H]1C[C@H](N)[C@H](O)[C@H](C)O1 [Doxorubicin] + CS(=O)(=O)N1CCN(Cc2cc3nc(-c4cccc5[nH]ncc45)nc(N4CCOCC4)c3s2)CC1 [Pictilisib] (partner 1 µM)
In short: as §1

BAY61-3606 + Alpelisib = compound: COC1=C(C=C(C=C1)C2=CC3=NC=CN3C(=N2)NC4=C(C=CC=N4)C(=O)N)OC [BAY61-3606] + Cc1nc(NC(=O)N2CCC[C@H]2C(N)=O)sc1-c1ccnc(C(C)(C)C(F)(F)F)c1 [Alpelisib] (partner 2 µM)
In short: as §1

Cell Line | relative viability (BAY61-3606 + Palbociclib; first compound 0.02 µM) | relative viability (BAY61-3606 + Palbociclib; first compound 0.06325 µM) | relative viability (BAY61-3606 + Palbociclib; first compound 0.2 µM) | relative viability (BAY61-3606 + Palbociclib; first compound 0.6325 µM) | relative viability (BAY61-3606 + Palbociclib; first compound 2 µM) | relative viability (Doxorubicin + Pemetrexed; first compound 0.001 µM) | relative viability (Doxorubicin + Pemetrexed; first compound 0.003162 µM) | relative viability (Doxorubicin + Pemetrexed; first compound 0.01 µM) | relative viability (Doxorubicin + Pemetrexed; first compound 0.03162 µM) | relative viability (Doxorubicin + Pemetrexed; first compound 0.1 µM) | relative viability (Doxorubicin + Pictilisib; first compound 0.001 µM) | relative viability (Doxorubicin + Pictilisib; first compound 0.003162 µM) | relative viability (Doxorubicin + Pictilisib; first compound 0.01 µM) | relative viability (Doxorubicin + Pictilisib; first compound 0.03162 µM) | relative viability (Doxorubicin + Pictilisib; first compound 0.1 µM) | relative viability (BAY61-3606 + Alpelisib; first compound 0.02 µM) | relative viability (BAY61-3606 + Alpelisib; first compound 0.06325 µM) | relative viability (BAY61-3606 + Alpelisib; first compound 0.2 µM) | relative viability (BAY61-3606 + Alpelisib; first compound 0.6325 µM) | relative viability (BAY61-3606 + Alpelisib; first compound 2 µM)
NCI-H1944 | 0.344 | 0.313 | 0.31 | 0.338 | 0.213 | 0.606 | 0.602 | 0.643 | 0.504 | 0.495 | 0.327 | 0.346 | 0.381 | 0.345 | 0.347 | 0.911 | 0.867 | 0.842 | 0.703 | 0.505
LCLC-103H | 0.473 | 0.508 | 0.449 | 0.462 | 0.481 | 0.499 | 0.484 | 0.458 | 0.467 | 0.466 | 0.618 | 0.677 | 0.569 | 0.588 | 0.578 | 0.94 | 0.965 | 0.981 | 1.03 | 1.04
COR-L 105 | 0.443 | 0.437 | 0.404 | 0.422 | 0.411 | 0.87 | 1.2 | 1.05 | 0.808 | 0.618 | 0.463 | 0.444 | 0.355 | 0.283 | 0.277 | 0.942 | 0.988 | 0.76 | 1.02 | 0.788
NCI-H1437 | 0.338 | 0.28 | 0.312 | 0.387 | 0.315 | 0.32 | 0.297 | 0.303 | 0.315 | 0.329 | 0.541 | 0.443 | 0.363 | 0.122 | 0.143 | 0.987 | 0.988 | 0.935 | 1.06 | 0.903
H3255 | 0.3 | 0.307 | 0.301 | 0.334 | 0.307 | 0.526 | 0.558 | 0.559 | 0.535 | 0.523 | 0.481 | 0.482 | 0.415 | 0.452 | 0.48 | 0.708 | 0.635 | 0.673 | 0.874 | 0.735
NCI-H2009 | 0.22 | 0.211 | 0.214 | 0.231 | 0.155 | 1.04 | 0.987 | 1.01 | 0.788 | 0.617 | 0.712 | 0.777 | 0.719 | 0.535 | 0.282 | 1.11 | 1.14 | 1.09 | 1.21 | 1.08
NCI-H1755 | 0.435 | 0.451 | 0.482 | 0.495 | 0.444 | 0.419 | 0.408 | 0.419 | 0.492 | 0.467 | 0.342 | 0.508 | 0.451 | 0.444 | 0.44 | 0.946 | 1.01 | 0.908 | 0.903 | 0.77
LU99A | 0.448 | 0.395 | 0.451 | 0.417 | 0.271 | 0.199 | 0.186 | 0.191 | 0.173 | 0.165 | 0.349 | 0.323 | 0.318 | 0.272 | 0.314 | 0.508 | 0.521 | 0.508 | 0.492 | 0.251
NCI-H2347 | 0.444 | 0.41 | 0.449 | 0.452 | 0.436 | 0.417 | 0.424 | 0.42 | 0.507 | 0.463 | 0.563 | 0.598 | 0.803 | 0.615 | 0.635 | 1.17 | 0.9 | 1.13 | 1.16 | 0.986
NCI-H650 | 0.34 | 0.337 | 0.371 | 0.365 | 0.306 | 1.05 | 0.846 | 0.926 | 0.867 | 0.784 | 0.989 | 0.886 | 0.867 | 0.734 | 0.711 | 1.27 | 1.12 | 1 | 1.1 | 0.871
NCI-H1666 | 0.657 | 0.745 | 0.731 | 0.634 | 0.688 |  | 0.858 | 0.724 | 0.782 | 0.757 | 0.376 | 0.37 | 0.309 | 0.237 | 0.271 | 0.903 |  | 0.981 | 0.993 | 0.956
NCI-H1792 | 0.677 | 0.61 | 0.659 | 0.747 | 0.698 | 0.43 | 0.889 | 0.809 | 0.691 | 0.466 | 0.325 | 0.287 | 0.309 | 0.209 | 0.251 | 0.743 | 0.673 | 0.74 | 0.751 | 0.674
PC-3 [JPC-3] | 0.531 | 0.512 | 0.529 | 0.521 | 0.517 | 1.2 | 1.12 | 1.15 | 1.05 | 0.663 | 0.774 | 0.842 | 0.758 | 0.713 | 0.702 | 1.05 | 1.08 | 1.04 | 1.05 | 0.878
HARA | 0.262 | 0.23 | 0.268 | 0.243 | 0.306 | 0.22 | 0.257 | 0.338 | 0.259 | 0.268 | 0.444 | 0.439 | 0.434 | 0.357 | 0.294 | 0.867 | 0.88 | 0.877 | 0.83 | 0.561
NCI-H2405 | 0.564 | 0.517 | 0.503 | 0.592 | 0.494 | 1.05 | 1.11 | 1.05 | 0.942 | 0.445 |  | 0.432 | 0.507 | 0.356 | 0.276 | 1.03 | 0.619 | 0.682 | 0.881 | 0.574
LOU-NH91 | 0.547 | 0.503 | 0.529 | 0.508 | 0.557 |  | 0.415 | 0.359 | 0.365 | 0.276 |  | 0.516 | 0.564 | 0.465 | 0.419 | 0.764 | 0.643 | 0.73 | 0.798 | 0.541
